Laboratory results as given in article PMC10178127, “Immunomodulatory Effects of the Pea Defensin Psd1 in the Caco-2/Immune Cells Co-Culture upon Candida albicans Infection” (International Journal of Molecular Sciences, 2023).

Assays:
[1] = test system: Caco-2/monocytes co-culture; test: Multiplex xMAP cytokine production, Caco-2/monocytes co-culture; type: cell-based, human; conditions: 24 h; for EGF level / Eotaxin level / FGF-2 level / FLT-3L level / Fractalkine level / G-CSF level / GM-CSF level / GROa level / IFNa2 level / IFNg level / IL-1RA level / IL-1a level / IL-1b level / IL-2 level / IL-3 level / IL-4 level / IL-5 level / IL-6 level / IL-7 level / IL-8 level / IL-9 level / IL-10 level / IL-12 (p40) level / IL-12 (p70) level / IL-13 level / IL-15 level / IL-17A level / IL-17E/IL-25 level / IL-17F level / IL-18 level / IL-22 level / IL-27 level / IP-10 level / M-GSF level / MCP-1 level / MCP-3 level / MDC level / MIG level / MIP-1a level / MIP-1b level / PDGF-AA level / PDGF-AB/BB level / RANTES level / TGF-a level / TNFa level / TNFb level / VEGFa level / sCD40L level: 2 µM apical, basolateral medium
Excerpt: The co-culture model consisted of immune cells (moDCs or monocytes) lying on the bottom of the culture well, and a Caco-2 polarized monolayer, mimicking intestinal epithelium, on a permeable insert. Immune cells were located on the serosal side of the epithelial barrier. In some inserts Candida albicans was loaded to the apical side of the epithelium, mimicking intestinal lumen colonization with this pathogenic fungus. This co-culture model allows yeast cells to contact only with the apical side of epithelial cells, but not with immune cells. Culture medium, containing cytokines, chemokines, and growth factors, produced by both epithelial and immune cells, was taken from basolateral chambers and analyzed by multiplex xMAP technology after incubation during 24 h when C. albicans cells switched to hyphal form.
For growing cells, mimicking epithelial barriers in vitro, Caco-2 cells were seeded onto 24-well polycarbonate Millicell cell culture inserts (0.4 μm, 0.6 cm^2 surface area) (Millipore, Burlington, MA, USA), precoated with 0.2% bovine gelatin (Sigma-Aldrich), at a density of 2.5 × 10^5 cells/cm^2. The cells were grown for 21 days in a complete DMEM/F12 (1:1) medium with re-feeding every 2–3 days with a fresh complete medium. The integrity of the Caco-2 cell monolayer was checked by measuring the transepithelial electrical resistance (TEER) using a Millicell-ERS Voltohmmeter (Millipore). Only cell monolayers with TEER > 400 Ωcm^2 (after subtracting TEER in blank inserts without Caco-2 cells) were used in transport across epithelial monolayer and cytokine production experiments.
Monocytes and moDCs were seeded into the wells of 48- and 24-well plates in the complete RPMI-1640 medium supplemented with 10% human AB serum (HABS, Capricorn Scientific) without antibiotics 24 h prior to the experiment, and kept in a humidified CO2-incubator (5% CO2, 37 °C). After 24 h, the medium in the wells of the 48-well plate was replaced by fresh complete RPMI-1640 medium with 10% HABS, supplemented with 2 µM of Psd1 for the sample wells or fresh medium alone for the control wells. Medium in the wells of the 24-well plate was replaced by fresh complete RPMI-1640 medium with 10% human serum without antibiotics. Then, Millicell inserts with Caco-2 monolayers with TEER > 400 Ωcm^2 were placed into the wells of the 24-well plate, containing monocytes or moDCs. Wells with Millicell inserts with Caco-2 monolayers without immune cells were used as control wells. Medium in apical chambers of Millicell inserts was replaced by fresh complete RPMI-1640 with 10% human serum medium containing Psd1 at the final concentration of 2 µM or Candida albicans at the concentration of 5 × 10^4 cells/mL or yeast cells together with the pea defensin at the same concentration. Fresh complete RPMI-1640 medium only with 10% human serum and without antibiotics was used in control wells. Plates were kept in CO2-incubator (5% CO2, 37 °C) for another 24 h. Culture supernatants from the wells of the 48-well plate and basolateral chambers of the 24-well plate were collected and stored at −70 °C degrees less than one month prior to the analytes assessment. […]

[2] = test system: Candida albicans enzymes; conditions: cited from earlier work
[3] = Caco-2/monocytes co-culture with C. albicans, 2 μM

## Psd1: pea defensin from Pisum sativum (UNIPROT P81929), recombinant peptide overexpressed in Escherichia coli (KTCEHLADTYRGVCFTNASCDDHCKNKAHLISGTCHNWKCFCTQNC; UniProt P81929 1-46, looked up)
[1]; Caco-2/Mono+Candida+Psd1
  EGF level: 7 pg/mL
  Eotaxin level: 4.44 pg/mL
  FGF-2 level: 47.02 pg/mL
  FLT-3L level: 0.83 pg/mL
  Fractalkine level: 27.26 pg/mL
  G-CSF level: 63.23 pg/mL
  GM-CSF level: 2.65 pg/mL
  GROa level: 1596 pg/mL
  IFNa2 level: 15.36 pg/mL
  IFNg level: <2.23↓ pg/ml
  IL-1RA level: 7.97 pg/mL
  IL-1a level: 29.04 pg/mL
  IL-1b level: 26.83 pg/mL
  IL-2 level: <0.95↓ pg/ml
  IL-3 level: <0.60↓ pg/ml
  IL-4 level: 3.07 pg/mL
  IL-5 level: <0.30↓ pg/ml
  IL-6 level: 631.32 pg/mL
  IL-7 level: <0.38↓ pg/ml
  IL-8 level: 8138 pg/mL
  IL-9 level: 6.07 pg/mL
  IL-10 level: 4.47 pg/mL
  IL-12 (p40) level: 25.99 pg/mL
  IL-12 (p70) level: <1.68↓ pg/ml
  IL-13 level: 25.38 pg/mL
  IL-15 level: 1.44 pg/mL
  IL-17A level: 2.9 pg/mL
  IL-17E/IL-25 level: <18.85↓ pg/ml
  IL-17F level: <19.03↓ pg/ml
  IL-18 level: 3.62 pg/mL
  IL-22 level: 24.13 pg/mL
  IL-27 level: 63.98 pg/mL
  IP-10 level: 35.99 pg/mL
  M-GSF level: 34.31 pg/mL
  MCP-1 level: 9510 pg/mL
  MCP-3 level: 273.49 pg/mL
  MDC level: 1060 pg/mL
  MIG level: 50.41 pg/mL
  MIP-1a level: 22.02 pg/mL
  MIP-1b level: 53.4 pg/mL
  PDGF-AA level: 341.69 pg/mL
  PDGF-AB/BB level: 805.91 pg/mL
  RANTES level: 78.92 pg/mL
  TGF-a level: 2.79 pg/mL
  TNFa level: 33.8 pg/mL
  TNFb level: 11.12 pg/mL
  VEGFa level: 523.74 pg/mL
  sCD40L level: 89.41 pg/mL
[1]; Caco-2/Mono+Psd1
  EGF level: 9.18 pg/mL
  Eotaxin level: 4.17 pg/mL
  FGF-2 level: 43.83 pg/mL
  FLT-3L level: 1.29 pg/mL
  Fractalkine level: 29.68 pg/mL
  G-CSF level: 80.21 pg/mL
  GM-CSF level: 4.74 pg/mL
  GROa level: 1849 pg/mL
  IFNa2 level: 18.56 pg/mL
  IFNg level: <2.23↓ pg/ml
  IL-1RA level: 10.99 pg/mL
  IL-1a level: 137.08 pg/mL
  IL-1b level: 62.38 pg/mL
  IL-2 level: 3.01 pg/mL
  IL-3 level: <0.60↓ pg/ml
  IL-4 level: 2.67 pg/mL
  IL-5 level: <0.30↓ pg/ml
  IL-6 level: 830.31 pg/mL
  IL-7 level: <0.38↓ pg/ml
  IL-8 level: 7130 pg/mL
  IL-9 level: 6.07 pg/mL
  IL-10 level: 8.82 pg/mL
  IL-12 (p40) level: 40.75 pg/mL
  IL-12 (p70) level: 2.06 pg/mL
  IL-13 level: 23.46 pg/mL
  IL-15 level: 2.33 pg/mL
  IL-17A level: 3.99 pg/mL
  IL-17E/IL-25 level: <18.85↓ pg/ml
  IL-17F level: <19.03↓ pg/ml
  IL-18 level: 5.64 pg/mL
  IL-22 level: 18.63 pg/mL
  IL-27 level: 76.02 pg/mL
  IP-10 level: 70.11 pg/mL
  M-GSF level: 34.31 pg/mL
  MCP-1 level: 9656 pg/mL
  MCP-3 level: 354.38 pg/mL
  MDC level: 1230 pg/mL
  MIG level: 129.1 pg/mL
  MIP-1a level: 26.21 pg/mL
  MIP-1b level: 45.94 pg/mL
  PDGF-AA level: 357.15 pg/mL
  PDGF-AB/BB level: 985.45 pg/mL
  RANTES level: 123.08 pg/mL
  TGF-a level: 4.39 pg/mL
  TNFa level: 44.58 pg/mL
  TNFb level: 10.19 pg/mL
  VEGFa level: 384.49 pg/mL
  sCD40L level: 94.06 pg/mL
[1]; [3]
  production of IL-4: increased the production
  production of IL-8/CXCL8, IL-12, TNFα, G-CSF, and GM-CSF: decreased inhibiting action of pathogenic fungus
  production of IL-22: statistically significantly (p < 0.05) increased
  production of MIG/CXCL9: decreased the production
[1]; Caco-2/monocytes co-culture, 2 μM apical, no Candida
  production of IL-2, IL-10, MDC and IL-17: statistically significant increase
[2]
  stability to proteolysis by Candida albicans enzymes: stable to proteolysis by Candida albicans enzymes
